Paper PMC12775434, “Ultra-large virtual screening unveils potent agonists of the neuromodulatory orphan receptor GPR139” (Nature Communications, 2025)
“And” between values parts separate entries of the source, which are not always exact repeats. Identical values can stand only once.

How the values were obtained:
GPR139 [1] = biological target: T1, GPR139 (Homo sapiens, UniProt Q6DWJ6); assay: Ca2+ mobilization assay, agonist mode, stable GPR139-CHOk1 cell line; assay type: cell-based; conditions: Agonist mode; individual replicates (Supplementary Figure 1)
T1 sequence (Q6DWJ6 1-353): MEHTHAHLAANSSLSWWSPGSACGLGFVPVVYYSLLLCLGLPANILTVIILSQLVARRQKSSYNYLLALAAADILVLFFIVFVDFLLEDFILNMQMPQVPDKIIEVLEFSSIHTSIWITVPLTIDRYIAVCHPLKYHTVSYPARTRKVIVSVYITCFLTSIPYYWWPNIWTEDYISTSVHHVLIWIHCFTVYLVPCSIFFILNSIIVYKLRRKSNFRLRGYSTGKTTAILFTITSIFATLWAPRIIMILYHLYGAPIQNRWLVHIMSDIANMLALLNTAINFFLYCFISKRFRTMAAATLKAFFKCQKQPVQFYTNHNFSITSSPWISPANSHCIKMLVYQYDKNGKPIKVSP
Procedure: Primary screening and pharmacological characterization of compounds were performed using a CHO-K1 cell line that stably expresses human GPR139 (GPR139-CHOk1). The GPR139-CHOk1 cell line was kindly provided by H. Lundbeck A/S, Denmark[24]. GPR139-CHOk1 cells were grown in Ham’s F-12 Kaighn’s Modification Medium (ThermoFisher #21127030) supplemented with 10% dialyzed fetal bovine serum (US origin, ThermoFisher #26400044), 100 units/mL Penicillin-Streptomycin (ThermoFisher #15140122), and 1 mg/mL Geneticin (ThermoFisher #11811031). […] M1R-CHOk1 cells were purchased from The Missouri S&T cDNA Resource Center (#CEM100TN00). M1R-CHOk1 cells were grown in Ham’s F12 Medium (ThermoFisher #21765029) supplemented with 10% fetal bovine serum (Brazilian origin, ThermoFisher #10270106), 100 units/mL Penicillin-Streptomycin, and 0.25 mg/mL Geneticin. HEK293A cells transiently transfected with GPR139 were used for additional pharmacological assessment of signaling pathways activated by GPR139. HEK239A cells were generously provided by Dr. Asuka Inoue, Tohoku University, Japan. HEK293A cells were grown in Dulbecco’s Modified Eagle Medium (ThermoFisher #31966047) supplemented with 10% dialyzed fetal bovine serum and 100 units/mL Penicillin-Streptomycin. Cell lines were maintained at 37 °C in humidified incubator equilibrated with 5% CO2.
(§1) 30,000 GPR139- or M1R-CHOk1 cells/well were seeded in black clear bottom tissue culture treated 96-well plates (Greiner #655090) and grown for 20–24 h. Cells were washed with HEPES buffer (Hank’s Balanced Salt Solution (HBBS) supplemented with 20 mM HEPES, 1 mM MgCl2, and 1 mM CaCl2; pH 7.4). Cells were loaded with 50 µL of 2 µM Fluo-4 AM dye (ThermoFisher #F14202) in HEPES buffer supplemented with 2.5 mM probenecid and 0.01% Pluronic F-68 (ThermoFisher #24040032) for 1 h at 37 °C. Cells were washed with HEPES buffer. 50 µL HEPES buffer supplemented with 2.5 mM probenecid was added, and the cells were incubated for 10 min at 37 °C before measurement. 50 µL test compounds diluted in HEPES buffer from DMSO stocks (final DMSO concentration of maximally 0.3%) were added automatically after baseline measurements. The intracellular calcium mobilization was measured on a FlexStation 3 Multimode Microplate Reader (Molecular Devices) at 37 °C with filters for excitation of 485 nm and emission of 525 nm.
(§2) Our primary compound screening protocol consisted of two subsequent steps that allowed to screen for agonists and antagonists simultaneously. In the first step, the screening compounds were applied at 10 µM to test for agonist activity (agonist mode). Following 20 min incubation with the compounds added in the first step, in the second step, an EC80 concentration (800 nM) of the reference agonist Lundbeck Cmp 1a was applied to test for antagonist activity (antagonist mode).
Pharmacological data and statistical analyses were performed in GraphPad Prism v9–10 (Graphpad Software Inc., San Diego, CA), which are also specifically described in the figure and table legends. The functional assay responses were normalized to buffer (0%) and Lundbeck Cmp 1a or JNJ-63533054 (100%), for Ca^2+ and IP1 experiments in the GPR139-CHOk1 stable cell line or Ca^2+, G protein activation, and arrestin-3 recruitment experiments in the HEK293A cells transiently transfected with GPR139, respectively. Data are from at least three independent experiments, unless stated otherwise. Concentration-response curves were fitted applying non-linear regression using the log (agonist) versus response model with variable slope. ANOVA was applied for comparing results and determining statistical significance.

GPR139 [2] = biological target: T1, GPR139; assay: Ca2+ mobilization assay, antagonist mode (EC80 800 nM Lundbeck Cmp 1a after 20 min preincubation), GPR139-CHOk1; assay type: cell-based; conditions: individual replicates (Supplementary Figure 1)
Procedure: as §1
as §2, with “(antagonist mode). In the agonist mode (first step) response is seen only with compounds having agonist activity (Cmp 1a), but not with non-receptor-binding compounds (Vehicle) or antagonists (NCRW0105-E06) (Supplementary Fig. 14). […] No antagonist compounds were identified in this study.” for “(antagonist mode).”

| Structure (SMILES) | Ca2+ signal (% of Cmp 1a) (GPR139 [1]) | Ca2+ signal (% of Cmp 1a) (GPR139 [2]) |
| --- | --- | --- |
| O=C(Nc1ccnc(-c2ccccc2)n1)C1COc2ccccc21 (stereo not drawn) [Compound 31, O=C(NC=1C=CN=C(N1)C=2C=CC=CC2)C3COC=4C=CC=CC34] | -5 % of Cmp 1a and 0.292 % of Cmp 1a and -0.778 % of Cmp 1a | 69.7439 % of Cmp 1a and 83.7645 % of Cmp 1a and 84.6387 % of Cmp 1a |
| CC(NC(=O)c1occc1COc1ccccc1)c1ccon1 (stereo not drawn) [Compound 32, CC(NC(=O)C=1OC=CC1COC=2C=CC=CC2)C=3C=CON3] | -11 % of Cmp 1a and -0.416 % of Cmp 1a and 7 % of Cmp 1a | 55.4318 % of Cmp 1a and 73.597 % of Cmp 1a and 97.305 % of Cmp 1a |
| O=C(CCn1nnc2ccccc2c1=O)Nc1ccc(F)c(F)c1F [Compound 33, FC=1C=CC(NC(=O)CCN2N=NC=3C=CC=CC3C2=O)=C(F)C1F] | -1.58 % of Cmp 1a and 1 % of Cmp 1a and 18 % of Cmp 1a | 80.4976 % of Cmp 1a and 74.4333 % of Cmp 1a and 82.6399 % of Cmp 1a |
| CC(NC(=O)N1CCCCC1c1cnn(C)c1)c1nccs1 (stereo not drawn) [Compound 34, CC(NC(=O)N1CCCCC1C=2C=NN(C)C2)C3=NC=CS3] | -1.66 % of Cmp 1a and 6.32 % of Cmp 1a and -6 % of Cmp 1a | 69.32 % of Cmp 1a and 71.8073 % of Cmp 1a and 90.0552 % of Cmp 1a |
| O=C(NCc1cccnc1)c1cn(-c2cccc(Cl)c2)nn1 [Compound 35, ClC=1C=CC=C(C1)N2C=C(N=N2)C(=O)NCC=3C=CC=NC3] | 5.3 % of Cmp 1a and 12 % of Cmp 1a and 7.49 % of Cmp 1a | 84.5048 % of Cmp 1a and 71.7301 % of Cmp 1a and 84.4533 % of Cmp 1a |
| CC(=O)c1sc(NC(=O)Cc2cncs2)nc1-c1ccccc1 [Compound 36, CC(=O)C=1SC(NC(=O)CC2=CN=CS2)=NC1C=3C=CC=CC3] | 9 % of Cmp 1a and -3 % of Cmp 1a and 2.21 % of Cmp 1a | 88.0715 % of Cmp 1a and 92.8057 % of Cmp 1a and 66.8597 % of Cmp 1a |
| Cc1ccc(-n2cc(NC(=O)NCc3cccs3)cn2)c(C)c1 [Compound 37, CC=1C=CC(=C(C)C1)N2C=C(NC(=O)NCC3=CC=CS3)C=N2] | -6 % of Cmp 1a and 12 % of Cmp 1a and 7 % of Cmp 1a | 89.9792 % of Cmp 1a and 76.2749 % of Cmp 1a and 86.0947 % of Cmp 1a |
| Cc1nnsc1C(=O)N1CCCC1c1nc2cc(Cl)ccc2[nH]1 (stereo not drawn) [Compound 38, CC=1N=NSC1C(=O)N2CCCC2C3=NC=4C=C(Cl)C=CC4N3] | 1.3 % of Cmp 1a and 1.18 % of Cmp 1a and -5.34 % of Cmp 1a | 85.3922 % of Cmp 1a and 96.4303 % of Cmp 1a and 86.2753 % of Cmp 1a |
| Cn1ccc(CNC(=O)Nc2cc(-c3cc(F)cc(F)c3)nn2C)c1 [Compound 39, CN1C=CC(CNC(=O)NC2=CC(=NN2C)C=3C=C(F)C=C(F)C3)=C1] | -2.56 % of Cmp 1a and -1.6 % of Cmp 1a and -1.54 % of Cmp 1a | 63.6266 % of Cmp 1a and 84.5465 % of Cmp 1a and 97.4779 % of Cmp 1a |
| CN(Cc1ncc(Cl)n1C)c1nc2cc([N+](=O)[O-])ccc2[nH]1 [Compound 40, CN(CC1=NC=C(Cl)N1C)C2=NC=3C=C(C=CC3N2)[N+](=O)[O-]] | -0.934 % of Cmp 1a and 6 % of Cmp 1a and 11 % of Cmp 1a | 84.3072 % of Cmp 1a and 83.9821 % of Cmp 1a and 105.029 % of Cmp 1a |
| Cc1ccc(NC(=O)C2Cc3ccccc32)cc1C(=O)N(C)C(C)C (stereo not drawn) [Compound 41, CC(C)N(C)C(=O)C=1C=C(NC(=O)C2CC=3C=CC=CC23)C=CC1C] | 0.898 % of Cmp 1a and -4.45 % of Cmp 1a and -1.11 % of Cmp 1a | 75.8841 % of Cmp 1a and 100.088 % of Cmp 1a and 66.5963 % of Cmp 1a |
| Cn1nc(-c2ccc(F)cc2F)cc1NC(=O)NCc1ccccn1 [Compound 42, CN1N=C(C=C1NC(=O)NCC=2C=CC=CN2)C=3C=CC(F)=CC3F] | 0.111 % of Cmp 1a and 2.67 % of Cmp 1a and 15 % of Cmp 1a | 73.5301 % of Cmp 1a and 76.7288 % of Cmp 1a and 79.4888 % of Cmp 1a |
| O=C(Nc1ccnc(OCc2ccccc2)c1)C1Cc2ccccc21 (stereo not drawn) [Compound 43, O=C(NC=1C=CN=C(OCC=2C=CC=CC2)C1)C3CC=4C=CC=CC34] | 0.84 % of Cmp 1a and 9 % of Cmp 1a and 13 % of Cmp 1a | 90.3553 % of Cmp 1a and 81.3074 % of Cmp 1a and 78.6074 % of Cmp 1a |
| COCC1(CNC(=O)NCc2ccccc2)OCCc2ccccc21 (stereo not drawn) [Compound 44, COCC1(CNC(=O)NCC=2C=CC=CC2)OCCC=3C=CC=CC31] | 8 % of Cmp 1a and -1.67 % of Cmp 1a and 19 % of Cmp 1a | 80.8112 % of Cmp 1a and 71.471 % of Cmp 1a and 86.0472 % of Cmp 1a |
| CCn1c(Nc2ccn(C)n2)nnc1-c1n[nH]c(=O)c2ccccc12 [Compound 45, CCN1C(NC=2C=CN(C)N2)=NN=C1C3=NNC(=O)C=4C=CC=CC34] | 0.117 % of Cmp 1a and 7 % of Cmp 1a and 8 % of Cmp 1a | 78.1245 % of Cmp 1a and 83.0928 % of Cmp 1a and 73.9872 % of Cmp 1a |
| O=C(CCn1cnc2cc(Cl)ccc2c1=O)Nc1ccccc1F [Compound 46, FC=1C=CC=CC1NC(=O)CCN2C=NC=3C=C(Cl)C=CC3C2=O] | 2.73 % of Cmp 1a and -6 % of Cmp 1a (2×) | 71.2649 % of Cmp 1a and 88.164 % of Cmp 1a and 80.2917 % of Cmp 1a |
| CC(=O)Nc1nc(Cn2cnc3c2CC(C)C(C)C3)cs1 (stereo not drawn) [Compound 47, CC1CC=2N=CN(CC3=CSC(NC(=O)C)=N3)C2CC1C] | -0.697 % of Cmp 1a and 10 % of Cmp 1a and 0.881 % of Cmp 1a | 79.7228 % of Cmp 1a and 79.8068 % of Cmp 1a and 92.3954 % of Cmp 1a |
| Cc1cc2c(=O)n(CC(O)C(C)c3ccccc3)cnc2cc1F (stereo not drawn) [Compound 48, CC(C(O)CN1C=NC=2C=C(F)C(C)=CC2C1=O)C=3C=CC=CC3] | 3.29 % of Cmp 1a and 10 % of Cmp 1a and 6 % of Cmp 1a | 94.1087 % of Cmp 1a and 84.538 % of Cmp 1a and 82.6111 % of Cmp 1a |
| Cc1ccc(C(C)NC(=O)Nc2ccc3c(c2)CCCC3=O)o1 (stereo not drawn) [Compound 49, CC(NC(=O)NC=1C=CC=2C(=O)CCCC2C1)C3=CC=C(C)O3] | 20 % of Cmp 1a and 6 % of Cmp 1a and 32 % of Cmp 1a | 51.3038 % of Cmp 1a and 78.2883 % of Cmp 1a and 60.6272 % of Cmp 1a |
| CC(NC(=O)N(C)Cc1cccc(N(C)C)c1)c1csnn1 (stereo not drawn) [Compound 50, CC(NC(=O)N(C)CC=1C=CC=C(C1)N(C)C)C2=CSN=N2] | -2.47 % of Cmp 1a and 0.0154 % of Cmp 1a and -4 % of Cmp 1a | 75.065 % of Cmp 1a and 68.1289 % of Cmp 1a and 85.7156 % of Cmp 1a |
| CC(Sc1nnc(C(C)(C)C)[nH]1)C(=O)NC(C)c1ccccc1 (stereo not drawn) [Compound 51, CC(NC(=O)C(C)SC1=NN=C(N1)C(C)(C)C)C=2C=CC=CC2] | -5 % of Cmp 1a and -3 % of Cmp 1a and 10 % of Cmp 1a | 68.4513 % of Cmp 1a and 72.762 % of Cmp 1a and 87.4722 % of Cmp 1a |
